The supplement of paper PMC8612539

Tests used:
[1] = system: Mannheimia haemolytica; test: minimum inhibitory concentration (MIC)
Method: (§1)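 Broth microdilution MIC (Sensititre BOPO7F bovine plate, CLSI methods) of 19 antimicrobials against field isolates of P. multocida, M. haemolytica, H. somni (deep nasopharyngeal swabs) and E. coli, Enterococcus spp. (rectal swabs) from weaned dairy heifers. Incubation 16-24 h at 35 C. MIC is the lowest concentration preventing visible growth. Values with <= or > lie at the tested range limits. Trimethoprim-sulfamethoxazole is given as the trimethoprim component of a 1:19 mixture.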

[2] = system: Enterococcus spp.; test: minimum inhibitory concentration (MIC)
Method: as §1

COc1cc(Cc2cnc(N)nc2N)cc(OC)c1OC.Cc1cc(NS(=O)(=O)c2ccc(N)cc2)no1 [trimethoprim-sulfamethoxazole]
minimum inhibitory concentration [µg/mL]
Details	[1]	[2]
isolate (source animal id): 2	–	≤ 2
isolate (source animal id): 3	≤ 2	–
isolate (source animal id): 8	≤ 2	–
isolate (source animal id): 13	≤ 2	–
isolate (source animal id): 18	≤ 2	–
isolate (source animal id): 21	≤ 2	–
isolate (source animal id): 25	≤ 2	–
isolate (source animal id): 27	≤ 2	–
isolate (source animal id): 28	≤ 2	–
isolate (source animal id): 30	≤ 2	–
isolate (source animal id): 31	≤ 2	–
isolate (source animal id): 32	≤ 2	–
isolate (source animal id): 34	≤ 2	–
isolate (source animal id): 35	–	> 2
isolate (source animal id): 36	≤ 2	–
isolate (source animal id): 37	≤ 2	–
isolate (source animal id): 40	≤ 2	–
isolate (source animal id): 41	≤ 2	–
isolate (source animal id): 42	–	≤ 2
isolate (source animal id): 43	≤ 2	–
isolate (source animal id): 44	–	> 2
isolate (source animal id): 46	≤ 2	–
isolate (source animal id): 49	≤ 2	–
isolate (source animal id): 50	≤ 2	–
isolate (source animal id): 51	≤ 2	–
isolate (source animal id): 52	≤ 2	–
isolate (source animal id): 53	≤ 2	–
isolate (source animal id): 55	≤ 2	–
isolate (source animal id): 56	≤ 2	–
isolate (source animal id): 57	≤ 2	–
isolate (source animal id): 60	> 2	–
isolate (source animal id): 61	≤ 2	–
isolate (source animal id): 64	≤ 2	–
isolate (source animal id): 65	≤ 2	–
isolate (source animal id): 66	> 2	–
isolate (source animal id): 67	≤ 2	–
isolate (source animal id): 68	≤ 2	–
isolate (source animal id): 70	≤ 2	–
isolate (source animal id): 72	≤ 2	–
isolate (source animal id): 74	≤ 2	–
isolate (source animal id): 76	≤ 2	–
isolate (source animal id): 79	–	≤ 2
isolate (source animal id): 80	≤ 2	–
isolate (source animal id): 82	≤ 2	–
isolate (source animal id): 83	≤ 2	–
isolate (source animal id): 84	≤ 2	–
isolate (source animal id): 85	≤ 2	–
isolate (source animal id): 86	≤ 2	–
isolate (source animal id): 87	> 2	–
isolate (source animal id): 88	–	≤ 2
isolate (source animal id): 91	–	≤ 2
isolate (source animal id): 92	–	≤ 2
isolate (source animal id): 100	> 2	–
isolate (source animal id): 103	≤ 2	–
isolate (source animal id): 107	≤ 2	–
isolate (source animal id): 108	≤ 2	–
isolate (source animal id): 111	–	≤ 2
isolate (source animal id): 112	≤ 2	–
isolate (source animal id): 113	≤ 2	–
isolate (source animal id): 121	≤ 2	–
isolate (source animal id): 122	≤ 2	> 2
isolate (source animal id): 123	≤ 2	≤ 2
isolate (source animal id): 126	≤ 2	–
isolate (source animal id): 133	≤ 2	≤ 2
isolate (source animal id): 135	≤ 2	–
isolate (source animal id): 138	≤ 2	–
isolate (source animal id): 141	≤ 2	–
isolate (source animal id): 142	≤ 2	–
isolate (source animal id): 145	≤ 2	–
isolate (source animal id): 149	≤ 2	–
isolate (source animal id): 151	≤ 2	–
isolate (source animal id): 152	≤ 2	–
isolate (source animal id): 154	≤ 2	–
isolate (source animal id): 158	–	> 2
isolate (source animal id): 159	≤ 2	–
isolate (source animal id): 162	≤ 2	–
isolate (source animal id): 168	–	≤ 2
isolate (source animal id): 169	–	≤ 2
isolate (source animal id): 170	≤ 2	–
isolate (source animal id): 171	≤ 2	≤ 2
isolate (source animal id): 172	≤ 2	–
isolate (source animal id): 173	≤ 2	–
isolate (source animal id): 175	–	≤ 2
isolate (source animal id): 177	–	≤ 2
isolate (source animal id): 179	≤ 2	–
isolate (source animal id): 180	≤ 2	–
isolate (source animal id): 181	–	≤ 2
isolate (source animal id): 182	–	≤ 2
isolate (source animal id): 183	≤ 2	≤ 2
isolate (source animal id): 186	≤ 2	–
isolate (source animal id): 187	≤ 2	≤ 2
isolate (source animal id): 188	≤ 2	–
isolate (source animal id): 190	≤ 2	≤ 2
isolate (source animal id): 191	≤ 2	–
isolate (source animal id): 192	≤ 2	–
isolate (source animal id): 194	–	≤ 2
isolate (source animal id): 195	–	≤ 2
isolate (source animal id): 197	–	≤ 2
isolate (source animal id): 201	≤ 2	–
isolate (source animal id): 202	≤ 2	–
isolate (source animal id): 209	≤ 2	–
isolate (source animal id): 211	≤ 2	≤ 2
isolate (source animal id): 214	–	> 2
isolate (source animal id): 220	≤ 2	–
isolate (source animal id): 221	≤ 2	–
isolate (source animal id): 222	–	≤ 2
isolate (source animal id): 223	≤ 2	≤ 2
isolate (source animal id): 228	–	≤ 2
isolate (source animal id): 230	–	≤ 2
isolate (source animal id): 233	≤ 2	–
isolate (source animal id): 235	–	≤ 2
isolate (source animal id): 236	–	≤ 2
isolate (source animal id): 237	≤ 2	–
isolate (source animal id): 239	–	≤ 2
isolate (source animal id): 241	≤ 2	≤ 2
isolate (source animal id): 244	–	≤ 2
isolate (source animal id): 246	–	≤ 2
isolate (source animal id): 247	–	≤ 2
isolate (source animal id): 250	–	≤ 2
isolate (source animal id): 252	≤ 2	> 2
isolate (source animal id): 253	≤ 2	–
isolate (source animal id): 259	≤ 2	–
isolate (source animal id): 260	≤ 2	–
isolate (source animal id): 262	≤ 2	–
isolate (source animal id): 268	–	≤ 2
isolate (source animal id): 282	≤ 2	≤ 2
isolate (source animal id): 285	–	> 2
isolate (source animal id): 287	≤ 2	–
isolate (source animal id): 288	≤ 2	–
isolate (source animal id): 289	–	≤ 2
isolate (source animal id): 290	–	≤ 2
isolate (source animal id): 291	≤ 2	–
isolate (source animal id): 293	≤ 2	–
isolate (source animal id): 296	–	≤ 2
isolate (source animal id): 298	≤ 2	≤ 2
isolate (source animal id): 299	≤ 2	–
isolate (source animal id): 300	≤ 2	–
isolate (source animal id): 301	–	≤ 2
isolate (source animal id): 302	≤ 2	–
isolate (source animal id): 304	≤ 2	–
isolate (source animal id): 306	≤ 2	–
isolate (source animal id): 308	≤ 2	–
isolate (source animal id): 309	≤ 2	–
isolate (source animal id): 310	–	> 2
isolate (source animal id): 313	≤ 2	–
isolate (source animal id): 318	≤ 2	–
isolate (source animal id): 320	≤ 2	≤ 2
isolate (source animal id): 321	≤ 2	–
isolate (source animal id): 323	≤ 2	–
isolate (source animal id): 324	≤ 2	–
isolate (source animal id): 326	≤ 2	–
isolate (source animal id): 328	≤ 2	–
isolate (source animal id): 329	≤ 2	–
isolate (source animal id): 331	–	≤ 2
isolate (source animal id): 333	≤ 2	≤ 2
isolate (source animal id): 335	≤ 2	–
isolate (source animal id): 338	≤ 2	–
isolate (source animal id): 341	–	> 2
